In patent US9605004B2, “Chemical compounds” (SYNGENTA LIMITED, priority 2013, dated 2017):

Columns and labels:
[1] = test system: a variety of test species; assay: Pre-emergence herbicidal activity (Example 8a, Table 2); assay type: in vivo; design: key: 0 = no damage to plant, 5 = total damage to plant; details: application pre-emergence, rate 1000 g/ha, evaluated after 13 days
How it was run: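 Seeds sown in standard soil in pots, held one day in glasshouse (24/16 °C day/night, 14 h light, 65% humidity), then sprayed with aqueous solution of compound formulated in acetone/water 50:50 with 0.5% Tween 20. Grown on under same conditions, watered twice daily; damage scored after 13 days (0 = none, 5 = total).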

[2] = test system: a variety of test species; assay: Post-emergence herbicidal activity (Example 8b, Table 3); assay type: in vivo; details: application post-emergence, rate 1000 g/ha, evaluated after 13 days, scale 0-5; for Herbicidal damage score, ABUTH: Abutilon theophrasti; for Herbicidal damage score, ALOMY: Alopecurus myosuroides; for Herbicidal damage score, AMARE: Amaranthus retroflexus; for Herbicidal damage score, ECHCG: Echinochloa crus-galli; for Herbicidal damage score, SETFA: Setaria faberi; for Herbicidal damage score, ZEAMX: Zea mays
How it was run: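 Foliar application to 8-day-old plants using a 0.5% Tween 20 acetone/water carrier; phytotoxicity is scored visually from 0 to 5 after 13 days of growth at 24/16 °C day/night.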

| Structure (SMILES) | Pre-emergence herbicidal activity, damage score ABUTH [1] | Pre-emergence herbicidal activity, damage score ALOMY [1] | Pre-emergence herbicidal activity, damage score AMARE [1] | Pre-emergence herbicidal activity, damage score ECHCG [1] | Pre-emergence herbicidal activity, damage score SETFA [1] | Pre-emergence herbicidal activity, damage score ZEAMX [1] | Herbicidal damage score, ABUTH [2] | Herbicidal damage score, ALOMY [2] | Herbicidal damage score, AMARE [2] | Herbicidal damage score, ECHCG [2] | Herbicidal damage score, SETFA [2] | Herbicidal damage score, ZEAMX [2] |
| --- | --- | --- | --- | --- | --- | --- | --- | --- | --- | --- | --- | --- |
| CCC1=C(Cl)C(=O)N(c2ccn(C)n2)C1O (stereo not drawn) [Compound B28] | 0 | 0 | 0 | 0 | 0 | 0 | 0 | 0 | 0 | 0 | 0 | 0 |
| CC1=C(Cl)C(=O)N(c2cc(C#CC(C)C)n(C)n2)C1O (stereo not drawn) [Compound B29] | 0 | 0 | 2 | 0 | 0 | 0 | 0 | 0 | 0 | 2 | 2 | 0 |
| CC1=C(Cl)C(=O)N(c2cc(C#CCC(C)C)n(C)n2)C1O (stereo not drawn) [Compound B30] | 0 | 0 | 2 | 0 | 0 | 0 | 3 | 0 | 3 | 0 | 2 | 0 |
| CCOC(C)(CC)c1cc(N2C(=O)C(Cl)=C(C)C2O)nn1C (stereo not drawn) [Compound B32] | 5 | 4 | 5 | 5 | 5 | 4 | 5 | 5 | 5 | 5 | 5 | 4 |
| CCC(C)c1cc(N2C(=O)C(Cl)=C(C)C2O)nn1C (stereo not drawn) [Compound B33] | 5 | 4 | 5 | 5 | 5 | 4 | 5 | 5 | 5 | 5 | 5 | 5 |
| CC#Cc1cc(N2C(=O)C(Cl)=C(C)C2O)nn1C (stereo not drawn) [Compound B35] | 3 | 1 | 5 | 4 | 3 | 0 | 4 | 1 | 1 | 4 | 4 | 0 |
| CSc1cc(N2C(=O)C(Cl)=C(C)C2O)nn1C (stereo not drawn) [Compound B36] | 5 | 3 | 5 | 5 | 5 | 2 | 5 | 4 | 5 | 5 | 5 | 5 |
| CC1=C(Cl)C(=O)N(c2cc(S(C)(=O)=O)n(C)n2)C1O (stereo not drawn) [Compound B38] | 5 | 4 | 5 | 5 | 5 | 4 | 5 | 5 | 5 | 5 | 5 | 5 |
| CC1=C(Cl)C(=O)N(c2cc(C(C)C(F)(F)F)n(C)n2)C1O (stereo not drawn) [Compound B39] | 5 | 4 | 5 | 5 | 5 | 4 | 5 | 5 | 5 | 5 | 5 | 5 |
| C/C=C\c1cc(N2C(=O)C(Cl)=C(C)C2O)nn1C (stereo not drawn) [Compound B43] | 5 | 2 | 5 | 4 | 4 | 1 | 5 | 4 | 4 | 5 | 5 | 2 |
| C=C(C)c1cc(N2C(=O)C(Cl)=C(C)C2O)nn1C (stereo not drawn) [Compound B45] | 5 | 4 | 5 | 5 | 5 | 3 | 5 | 5 | 5 | 5 | 5 | 4 |
| CC(C)=C(C)c1cc(N2C(=O)C(Cl)=C(C)C2O)nn1C (stereo not drawn) [Compound B48] | 4 | 4 | 5 | 4 | 3 | 1 | 5 | 4 | 5 | 5 | 4 | 1 |
| CCO/C=C\c1cc(N2C(=O)C(Cl)=C(C)C2O)nn1C (stereo not drawn) [Compound B49] | 0 | 0 | 0 | 0 | 0 | 0 | 2 | 0 | 4 | 0 | 3 | 1 |
| CCn1nc(N2C(=O)C(Cl)=C(C)C2O)cc1C(F)(F)F (stereo not drawn) [Compound C1] | 5 | 4 | 5 | 5 | 4 | 4 | 5 | 5 | 5 | 5 | 4 | 3 |
| CCn1nc(N2C(=O)C(Cl)=C(C)C2O)cc1C(C)(C)C (stereo not drawn) [Compound C2] | 4 | 4 | 5 | 4 | 5 | 2 | 5 | 5 | 4 | 5 | 5 | 3 |
